Data taken from patent US10202378B2, “Therapeutic compounds and uses thereof” (GENENTECH, INC., priority 2015, dated 2019).

What was measured:
TAF1-BD2 = TAF1-BD2 (Homo sapiens, UniProt P21675); test: TAF1-BD2 TR-FRET Binding Assay; settings: read-out: TAF1-BD2 HTRF IC50
TAF1-BD1 = TAF1-BD1 (Homo sapiens, UniProt P21675); test: TAF1-BD1 TR-FRET Binding Assay; settings: read-out: TAF1-BD1 HTRF IC50

What does the source list for `Cc1[nH]c2c(=O)n(C)cc(C#CC(C)(C)O)c2c1C(=O)OC(C)(C)CCN` [Example 165, (3-amino-1,1-dimethyl-propyl) 4-(3-hydroxy-3-methyl-but-1-ynyl)-2,6-dimethyl-7-oxo-1H-pyrrolo[2,3-c]pyridine-3-carboxylate]?
IC50 (TAF1-BD2): 21.7 nM; IC50 (TAF1-BD1): 551 nM

What does the source list for `Cc1[nH]c2c(=O)n(C)cc(C#CC(O)(c3ccccc3)C(F)(F)F)c2c1C(=O)OCCC#N` (stereo not shown) [Example 166, 2-cyanoethyl 2,6-dimethyl-7-oxo-4-(4,4,4-trifluoro-3-hydroxy-3-phenyl-but-1-ynyl)-1H-pyrrolo[2,3-c]pyridine-3-carboxylate]?
IC50 (TAF1-BD2): 31.2 nM; IC50 (TAF1-BD1): 214 nM

With `CCNC(=O)c1c(C)[nH]c2c(=O)n(C)cc(C#CC(C)(C)O)c12` [Example 168, N-ethyl-4-(3-hydroxy-3-methyl-but-1-ynyl)-2,6-dimethyl-7-oxo-1H-pyrrolo[2,3-c]pyridine-3-carboxamide] as the compound, how does the IC50 (TAF1-BD2) read?
Its IC50 is 1630 nM.

And the IC50 (TAF1-BD1)?
The IC50 was 5790 nM.

How did the IC50 (TAF1-BD2) turn out when `Cc1[nH]c2c(=O)n(C)cc(C#CC(C)(C)O)c2c1C(=O)NC(C)C` [Example 169, 4-(3-hydroxy-3-methyl-but-1-ynyl)-N-isopropyl-2,6-dimethyl-7-oxo-1H-pyrrolo[2,3-c]pyridine-3-carboxamide] was run?
The IC50 was 2670 nM.

And the IC50 (TAF1-BD1)?
Its IC50 is 5310 nM.

Which IC50 (TAF1-BD2) does the source give for `Cc1[nH]c2c(=O)n(C)cc(C#CC(C)(C)O)c2c1C(=O)NC(C)(C)C` [Example 170, N-tert-butyl-4-(3-hydroxy-3-methyl-but-1-ynyl)-2,6-dimethyl-7-oxo-1H-pyrrolo[2,3-c]pyridine-3-carboxamide] here?
The IC50 was 347 nM.

What about the IC50 (TAF1-BD1) of the same compound?
Its IC50 is 3620 nM.

What does the source list for `Cc1[nH]c2c(=O)n(C)cc(C#CC(C)(O)C3CC3)c2c1-c1nnc(C(C)(C)O)o1` (stereo not shown) [Example 172, 4-(3-cyclopropyl-3-hydroxy-but-1-ynyl)-3-(5-(1-hydroxy-1-methyl-ethyl)-1,3,4-oxadiazol-2-yl)-2,6-dimethyl-1H-pyrrolo[2,3-c]pyridin-7-one]?
IC50 (TAF1-BD2): 110 nM; IC50 (TAF1-BD1): 451 nM

Which IC50 (TAF1-BD2) does the source give for `CC(=O)NCc1nnc(-c2c(C)[nH]c3c(=O)n(C)cc(C#CC(O)(c4ccccc4)C(F)(F)F)c23)o1` (stereo not shown) [Example 173, N-[[5-[2,6-dimethyl-7-oxo-4-(4,4,4-trifluoro-3-hydroxy-3-phenyl-but-1-ynyl)-1H-pyrrolo[2,3-c]pyridin-3-yl]-1,3,4-oxadiazol-2-yl]methyl]acetamide] here?
Its IC50 is 117 nM.

What about the IC50 (TAF1-BD1) of the same compound?
Its IC50 is 490 nM.

For `CC(=O)NCc1nnc(-c2c(C)[nH]c3c(=O)n(C)cc(C#CC(C)(O)C4CC4)c23)o1` (stereo not shown) [Example 174, N-[[5-[4-(3-cyclopropyl-3-hydroxy-but-1-ynyl)-2,6-dimethyl-7-oxo-1H-pyrrolo[2,3-c]pyridin-3-yl]-1,3,4-oxadiazol-2-yl]methyl]acetamide], which IC50 (TAF1-BD2) is on record?
The IC50 was 86.4 nM.

And the IC50 (TAF1-BD1)?
Its IC50 is 521 nM.

Which results are given for `Cc1[nH]c2c(=O)n(C)cc(C#CC(C)(O)C3CC3)c2c1-c1nnc(C2CCOC2)o1` (stereo not shown) [Example 175, 4-(3-cyclopropyl-3-hydroxy-but-1-ynyl)-2,6-dimethyl-3-(5-tetrahydrofuran-3-yl-1,3,4-oxadiazol-2-yl)-1H-pyrrolo[2,3-c]pyridin-7-one]?
IC50 (TAF1-BD2): 46.7 nM; IC50 (TAF1-BD1): 248 nM

How did the IC50 (TAF1-BD2) turn out when `Cc1[nH]c2c(=O)n(C)cc(C#CC(C)(O)C3CC3)c2c1-c1nnc(C(C)CN2CCOCC2)o1` (stereo not shown) [Example 176, 4-(3-cyclopropyl-3-hydroxy-but-1-ynyl)-2,6-dimethyl-3-[5-(1-methyl-2-morpholino-ethyl)-1,3,4-oxadiazol-2-yl]-1H-pyrrolo[2,3-c]pyridin-7-one] was run?
Its IC50 is 38.3 nM.

What about the IC50 (TAF1-BD1) of the same compound?
Its IC50 is 241 nM.

With `Cc1nnc(-c2c(C)[nH]c3c(=O)n(C)cc(C#CC(C)(C)O)c23)o1` [Example 177, 4-(3-hydroxy-3-methyl-but-1-ynyl)-2,6-dimethyl-3-(5-methyl-1,3,4-oxadiazol-2-yl)-1H-pyrrolo[2,3-c]pyridin-7-one] as the compound, how does the IC50 (TAF1-BD2) read?
The IC50 was 50.7 nM.

And the IC50 (TAF1-BD1)?
The IC50 was 543 nM.

Which IC50 (TAF1-BD2) does the source give for `Cc1[nH]c2c(=O)n(C)cc(C#CC(O)(c3ccccc3)C(F)(F)F)c2c1-c1nnc(CCN(C)C)o1` (stereo not shown) [Example 178, 3-[5-[2-(dimethylamino)ethyl]-1,3,4-oxadiazol-2-yl]-2,6-dimethyl-4-(4,4,4-trifluoro-3-hydroxy-3-phenyl-but-1-ynyl)-1H-pyrrolo[2,3-c]pyridin-7-one] here?
The IC50 was 88.1 nM.

What about the IC50 (TAF1-BD1) of the same compound?
Its IC50 is 725 nM.

Which results are given for `Cc1[nH]c2c(=O)n(C)cc(C#CC(C)(O)C3CC3)c2c1-c1nnc(CC(C)C)o1` (stereo not shown) [Example 179, 4-(3-cyclopropyl-3-hydroxy-but-1-ynyl)-3-(5-isobutyl-1,3,4-oxadiazol-2-yl)-2,6-dimethyl-1H-pyrrolo[2,3-c]pyridin-7-one]?
IC50 (TAF1-BD2): 29.2 nM; IC50 (TAF1-BD1): 137 nM

Which results are given for `Cc1[nH]c2c(=O)n(C)cc(C#CC(O)(c3ccccc3)C(F)(F)F)c2c1-c1nnc(C2CC2)o1` (stereo not shown) [Example 180, 3-(5-cyclopropyl-1,3,4-oxadiazol-2-yl)-2,6-dimethyl-4-(4,4,4-trifluoro-3-hydroxy-3-phenyl-but-1-ynyl)-1H-pyrrolo[2,3-c]pyridin-7-one]?
IC50 (TAF1-BD2): 47.1 nM; IC50 (TAF1-BD1): 249 nM

For `CCc1nnc(-c2c(C)[nH]c3c(=O)n(C)cc(C#CC(C)(O)C4CC4)c23)o1` (stereo not shown) [Example 181, 4-(3-cyclopropyl-3-hydroxy-but-1-ynyl)-3-(5-ethyl-1,3,4-oxadiazol-2-yl)-2,6-dimethyl-1H-pyrrolo[2,3-c]pyridin-7-one], which IC50 (TAF1-BD2) is on record?
Its IC50 is 44.8 nM.

And the IC50 (TAF1-BD1)?
Its IC50 is 199 nM.

Which IC50 (TAF1-BD2) does the source give for `Cc1[nH]c2c(=O)n(C)cc(C#CC(C)(O)C3CC3)c2c1-c1nnco1` (stereo not shown) [Example 182, 4-(3-cyclopropyl-3-hydroxy-but-1-ynyl)-2,6-dimethyl-3-(1,3,4-oxadiazol-2-yl)-1H-pyrrolo[2,3-c]pyridin-7-one] here?
Its IC50 is 53.5 nM.

What about the IC50 (TAF1-BD1) of the same compound?
Its IC50 is 285 nM.

`Cc1[nH]c2c(=O)n(C)cc(C#CC(O)(c3ccccc3)C(F)(F)F)c2c1-c1nnco1` (stereo not shown) [Example 183, 2,6-dimethyl-3-(1,3,4-oxadiazol-2-yl)-4-(4,4,4-trifluoro-3-hydroxy-3-phenyl-but-1-ynyl)-1H-pyrrolo[2,3-c]pyridin-7-one] was tested. Which IC50 (TAF1-BD2) did it give?
The IC50 was 50.2 nM.

And the IC50 (TAF1-BD1)?
Its IC50 is 598 nM.

Which results are given for `Cc1nnc(-c2c(C)[nH]c3c(=O)n(C)cc(C#CC(O)(c4ccccc4)C(F)(F)F)c23)o1` (stereo not shown) [Example 184, 2,6-dimethyl-3-(5-methyl-1,3,4-oxadiazol-2-yl)-4-(4,4,4-trifluoro-3-hydroxy-3-phenyl-but-1-ynyl)-1H-pyrrolo[2,3-c]pyridin-7-one]?
IC50 (TAF1-BD2): 62.7 nM; IC50 (TAF1-BD1): 327 nM

Which IC50 (TAF1-BD2) does the source give for `Cc1[nH]c2c(=O)n(C)cc(C#CC(C)(O)C3CC3)c2c1-c1nnc(C(C)(C)C)o1` (stereo not shown) [Example 187, 3-(5-tert-butyl-1,3,4-oxadiazol-2-yl)-4-(3-cyclopropyl-3-hydroxy-but-1-ynyl)-2,6-dimethyl-1H-pyrrolo[2,3-c]pyridin-7-one] here?
The IC50 was 58 nM.

And the IC50 (TAF1-BD1)?
Its IC50 is 216 nM.

How did the IC50 (TAF1-BD2) turn out when `Cc1[nH]c2c(=O)n(C)cc(C#CC(O)(c3ccccc3)C(F)(F)F)c2c1-c1nnc(C(C)(C)C)o1` (stereo not shown) [Example 188, 3-(5-tert-butyl-1,3,4-oxadiazol-2-yl)-2,6-dimethyl-4-(4,4,4-trifluoro-3-hydroxy-3-phenyl-but-1-ynyl)-1H-pyrrolo[2,3-c]pyridin-7-one] was run?
Its IC50 is 86.2 nM.

And the IC50 (TAF1-BD1)?
Its IC50 is 385 nM.

How did the IC50 (TAF1-BD2) turn out when `Cc1cc([C@](C)(O)C#Cc2cn(C)c(=O)c3[nH]c(C)c(-c4nnc(C5CC5)o4)c23)no1` [Example 190, 3-(5-cyclopropyl-1,3,4-oxadiazol-2-yl)-4-[(3R)-3-hydroxy-3-(5-methylisoxazol-3-yl)but-1-ynyl]-2,6-dimethyl-1H-pyrrolo[2,3-c]pyridin-7-one] was run?
Its IC50 is 49.9 nM.

What about the IC50 (TAF1-BD1) of the same compound?
The IC50 was 239 nM.

How did the IC50 (TAF1-BD2) turn out when `Cc1[nH]c2c(=O)n(C)cc(C#CC(C)(O)C3CC3)c2c1-c1nnc(C(C)C)o1` (stereo not shown) [Example 191, 4-(3-cyclopropyl-3-hydroxy-but-1-ynyl)-3-(5-isopropyl-1,3,4-oxadiazol-2-yl)-2,6-dimethyl-1H-pyrrolo[2,3-c]pyridin-7-one] was run?
The IC50 was 36.4 nM.

And the IC50 (TAF1-BD1)?
The IC50 was 270 nM.

Which IC50 (TAF1-BD2) does the source give for `Cc1nnc(-c2c(C)[nH]c3c(=O)n(C)cc(C#CC(C)(O)C4CC4)c23)o1` (stereo not shown) [Example 192, 4-(3-cyclopropyl-3-hydroxy-but-1-ynyl)-2,6-dimethyl-3-(5-methyl-1,3,4-oxadiazol-2-yl)-1H-pyrrolo[2,3-c]pyridin-7-one] here?
The IC50 was 61.6 nM.

What about the IC50 (TAF1-BD1) of the same compound?
Its IC50 is 335 nM.

How did the IC50 (TAF1-BD2) turn out when `Cc1cc([C@](C)(O)C#Cc2cn(C)c(=O)c3[nH]c(C)c(-c4nnc(C)o4)c23)no1` [Example 193, 4-[(3R)-3-hydroxy-3-(5-methylisoxazol-3-yl)but-1-ynyl]-2,6-dimethyl-3-(5-methyl-1,3,4-oxadiazol-2-yl)-1H-pyrrolo[2,3-c]pyridin-7-one] was run?
Its IC50 is 153 nM.

What about the IC50 (TAF1-BD1) of the same compound?
Its IC50 is 517 nM.

Which results are given for `Cc1cc([C@](C)(O)C#Cc2cn(C)c(=O)c3[nH]c(C)c(-c4nnc(C(C)C)o4)c23)no1` [Example 194, 4-[(3R)-3-hydroxy-3-(5-methylisoxazol-3-yl)but-1-ynyl]-3-(5-isopropyl-1,3,4-oxadiazol-2-yl)-2,6-dimethyl-1H-pyrrolo[2,3-c]pyridin-7-one]?
IC50 (TAF1-BD2): 69.1 nM; IC50 (TAF1-BD1): 244 nM

How did the IC50 (TAF1-BD2) turn out when `Cc1[nH]c2c(=O)n(C)cc(C#CC(C)(C)O)c2c1-c1nnc(C(C)C)o1` [Example 195, 4-(3-hydroxy-3-methyl-but-1-ynyl)-3-(5-isopropyl-1,3,4-oxadiazol-2-yl)-2,6-dimethyl-1H-pyrrolo[2,3-c]pyridin-7-one] was run?
Its IC50 is 29.4 nM.

And the IC50 (TAF1-BD1)?
The IC50 was 360 nM.

What does the source list for `CCOC(=O)c1c(C)[nH]c2c(=O)n(C)cc(C#CC(O)(c3cccc(C(N)=O)c3)C(F)(F)F)c12` (stereo not shown) [Example 197, ethyl 4-[3-(3-carbamoylphenyl)-4,4,4-trifluoro-3-hydroxy-but-1-ynyl]-2,6-dimethyl-7-oxo-1H-pyrrolo[2,3-c]pyridine-3-carboxylate]?
IC50 (TAF1-BD2): 34.1 nM; IC50 (TAF1-BD1): 185 nM

`Cc1cc2c(C#CC(C)(C)O)cn(C)c(=O)c2[nH]1` [Example 198, 4-(3-hydroxy-3-methyl-but-1-ynyl)-2,6-dimethyl-1H-pyrrolo[2,3-c]pyridin-7-one] was tested. Which IC50 (TAF1-BD2) did it give?
Its IC50 is 536 nM.

What about the IC50 (TAF1-BD1) of the same compound?
Its IC50 is 1740 nM.

What does the source list for `CC(=O)c1c(C)[nH]c2c(=O)n(C)cc(C#CC(C)(C)O)c12` [Example 199a, 3-acetyl-4-(3-hydroxy-3-methyl-but-1-ynyl)-2,6-dimethyl-1H-pyrrolo[2,3-c]pyridin-7-one]?
IC50 (TAF1-BD2): 130 nM; IC50 (TAF1-BD1): 1300 nM
